Experimental data taken from ChEMBL document CHEMBL1125663, “Function of negative charge in the "address domain" of deltorphins” (J Med Chem, 1991).
Square brackets hold non-standard residues; d marks the D form. Peptide text beside a SMILES is read from it.

Key:
Format in all cases: cell membranes
Mu-type opioid receptor [1] = target: T1, Mu-type opioid receptor (Rattus norvegicus, UniProt P33535); test: Binding affinity against Opioid receptor mu 1 in P2 membrane preparation of rat brain by [3H]DAGO displacement.
[2] = target: T2, Delta-type opioid receptor (Rattus norvegicus, UniProt P33533); test: Binding affinity against Opioid receptor delta 1 in P2 membrane preparation of rat brain by [3H]DADLE displacement.
Mu-type opioid receptor [3] = target: T1, Mu-type opioid receptor; test: Inhibition of [3H]DAGO binding to trat brain opioid receptor mu in P2 membrane
[4] = target: T2, Delta-type opioid receptor; test: Inhibition of [3H]-DADLE binding to opioid receptor delta in P2 membrane preparation of rat brain

T1 sequence (P33535 whole entry): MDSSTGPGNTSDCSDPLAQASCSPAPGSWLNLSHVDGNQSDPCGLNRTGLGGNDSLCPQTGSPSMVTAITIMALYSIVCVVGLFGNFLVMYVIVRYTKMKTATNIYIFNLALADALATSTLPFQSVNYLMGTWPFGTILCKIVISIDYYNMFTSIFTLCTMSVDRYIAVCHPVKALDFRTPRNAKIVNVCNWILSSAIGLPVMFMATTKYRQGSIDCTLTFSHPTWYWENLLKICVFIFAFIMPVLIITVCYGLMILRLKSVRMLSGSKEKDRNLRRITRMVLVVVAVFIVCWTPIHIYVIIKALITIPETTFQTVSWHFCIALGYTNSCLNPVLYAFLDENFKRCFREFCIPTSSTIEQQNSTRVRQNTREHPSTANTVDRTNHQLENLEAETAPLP
T2 sequence (P33533 whole entry): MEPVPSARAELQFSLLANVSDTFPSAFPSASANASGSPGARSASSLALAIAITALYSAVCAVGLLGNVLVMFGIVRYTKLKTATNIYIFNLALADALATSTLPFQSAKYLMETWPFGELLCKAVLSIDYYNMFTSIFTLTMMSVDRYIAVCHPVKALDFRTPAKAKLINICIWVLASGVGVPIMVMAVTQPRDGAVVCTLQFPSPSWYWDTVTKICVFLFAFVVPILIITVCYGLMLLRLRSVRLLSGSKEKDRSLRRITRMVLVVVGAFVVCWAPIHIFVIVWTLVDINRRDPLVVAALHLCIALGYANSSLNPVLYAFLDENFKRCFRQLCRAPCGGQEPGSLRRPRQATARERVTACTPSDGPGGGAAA

How did the Ki (Mu-type opioid receptor [1]) turn out when `CSCC[C@H](NC(=O)[C@H](CC(C)C)NC(=O)[C@H](Cc1cnc[nH]1)NC(=O)[C@H](Cc1ccccc1)NC(=O)[C@@H](CCSC)NC(=O)[C@@H](N)Cc1ccc(O)cc1)C(=O)N[C@@H](CC(=O)O)C(C)=O` was run?
Its Ki is 3220 nM.

And the Ki [2]?
The Ki was 155 nM.

Which Ki (Mu-type opioid receptor [1]) does the source give for `CC(C)[C@H](NC(=O)[C@H](CC(=O)O)NC(=O)[C@H](Cc1ccccc1)NC(=O)[C@H](C)NC(=O)[C@@H](N)Cc1ccc(O)cc1)C(=O)N[C@H](C(=O)NCC(=O)O)C(C)C` here?
The Ki was 1640 nM.

And the Ki [2]?
Its Ki is 6.01 nM.

How did the Ki (Mu-type opioid receptor [1]) turn out when `CCCC[C@H](NC(=O)[C@H](CC(C)C)NC(=O)[C@H](Cc1cnc[nH]1)NC(=O)[C@H](Cc1ccccc1)NC(=O)[C@@H](CCSC)NC(=O)[C@@H](N)Cc1ccc(O)cc1)C(=O)N[C@@H](CC(=O)O)C(N)=O` was run?
The Ki was 206 nM.

And the Ki [2]?
The Ki was 0.22 nM.

Which results are given for `CSCC[C@H](NC(=O)[C@H](CC(C)C)NC(=O)[C@H](CC(=O)O)NC(=O)[C@H](Cc1ccccc1)NC(=O)[C@@H](CCSC)NC(=O)[C@@H](N)Cc1ccc(O)cc1)C(=O)N[C@@H](CC(=O)O)C(N)=O`?
Ki (Mu-type opioid receptor [1]): 10600 nM; Ki [2]: 7.71 nM

For `CSCC[C@H](NC(=O)[C@H](CC(C)C)NC(=O)[C@H](Cc1c[nH]cn1)NC(=O)[C@H](Cc1ccccc1)NC(=O)[C@@H](CCSC)NC(=O)[C@@H](N)Cc1ccc(O)cc1)C(=O)N[C@@H](CC(N)=O)C(N)=O`, which Ki (Mu-type opioid receptor [1]) is on record?
The Ki was 119 nM.

What about the Ki [2] of the same compound?
Its Ki is 0.22 nM.

For `CSCC[C@H](NC(=O)[C@H](CC(=O)O)NC(=O)[C@H](CC(=O)O)NC(=O)[C@H](Cc1ccccc1)NC(=O)[C@@H](CCSC)NC(=O)[C@@H](N)Cc1ccc(O)cc1)C(=O)N[C@@H](Cc1c[nH]cn1)C(N)=O`, which Ki (Mu-type opioid receptor [1]) is on record?
Its Ki is 1570 nM.

What about the Ki [2] of the same compound?
Its Ki is 1900 nM.

Which Ki (Mu-type opioid receptor [1]) does the source give for `CC(C)[C@H](NC(=O)[C@H](CCC(N)=O)NC(=O)[C@H](Cc1ccccc1)NC(=O)[C@@H](C)NC(=O)[C@@H](N)Cc1ccc(O)cc1)C(=O)N[C@H](C(=O)NCC(=O)O)C(C)C` here?
Its Ki is 153 nM.

And the Ki [2]?
The Ki was 0.2 nM.

Which results are given for `CSCC[C@@H](NC(=O)[C@@H](N)Cc1ccc(O)cc1)C(=O)N[C@@H](Cc1ccccc1)C(=O)N[C@@H](Cc1cnc[nH]1)C(=O)N[C@@H](CC(C)C)C(=O)N[C@@H](CC(=O)O)C(=O)N[C@@H](CC(=O)O)C(N)=O`?
Ki (Mu-type opioid receptor [1]): 3410 nM; Ki [2]: 3.08 nM

For `CSCC[C@@H](NC(=O)[C@@H](N)Cc1ccc(O)cc1)C(=O)N[C@@H](Cc1ccccc1)C(=O)N[C@@H](Cc1cnc[nH]1)C(=O)N[C@@H](CC(C)C)C(=O)N[C@@H](CC(=O)O)C(=O)N[C@@H](CC(=O)O)C(=O)O`, which Ki (Mu-type opioid receptor [1]) is on record?
Its Ki is 2090 nM.

What about the Ki [2] of the same compound?
The Ki was 6.01 nM.

With `CC(C)[C@H](NC(=O)CNC(=O)[C@H](Cc1ccccc1)NC(=O)[C@H](C)NC(=O)[C@@H](N)Cc1ccc(O)cc1)C(=O)N[C@H](C(=O)N[C@@H](CC(=O)O)C(=O)O)C(C)C` (H-YAFGVVD-OH) as the compound, how does the Ki (Mu-type opioid receptor [1]) read?
Its Ki is 57.5 nM.

What about the Ki [2] of the same compound?
The Ki was 8.79 nM.

What does the source list for `CC(C)[C@H](NC(=O)[C@H](CC(N)=O)NC(=O)[C@H](Cc1ccccc1)NC(=O)[C@H](C)NC(=O)[C@@H](N)Cc1ccc(O)cc1)C(=O)N[C@H](C(=O)NCC(N)=O)C(C)C` (H-YAFNVVG-NH2)?
Ki (Mu-type opioid receptor [3]): 176 nM; Ki [4]: 0.65 nM

`CC(C)[C@H](NC(=O)[C@H](CC(=O)O)NC(=O)[C@@H](NC(=O)[C@H](Cc1ccccc1)NC(=O)[C@H](C)NC(=O)[C@@H](N)Cc1ccc(O)cc1)C(C)C)C(=O)NCC(N)=O` (H-YAFVDVG-NH2) was tested. Which Ki (Mu-type opioid receptor [1]) did it give?
Its Ki is 275 nM.

And the Ki [2]?
The Ki was 1.23 nM.

What does the source list for `CC(C)[C@H](NC(=O)[C@H](Cc1ccccc1)NC(=O)[C@H](C)NC(=O)[C@@H](N)Cc1ccc(O)cc1)C(=O)N[C@H](C(=O)N[C@@H](CC(=O)O)C(=O)NCC(N)=O)C(C)C` (H-YAFVVDG-NH2)?
Ki (Mu-type opioid receptor [1]): 149 nM; Ki [2]: 9.42 nM

For `CSCC[C@H](NC(=O)[C@H](CC(C)C)NC(=O)[C@H](Cc1c[nH]cn1)NC(=O)[C@H](Cc1ccccc1)NC(=O)[C@@H](CCSC)NC(=O)[C@@H](N)Cc1ccc(O)cc1)C(=O)N[C@@H](CC(=O)O)C(=O)O` (H-Y[dM]FHLMD-OH), which Ki (Mu-type opioid receptor [1]) is on record?
Its Ki is 2690 nM.

What about the Ki [2] of the same compound?
The Ki was 10.8 nM.

`C[C@@H](NC(=O)[C@@H](N)Cc1ccc(O)cc1)C(=O)NCC(=O)N(C)[C@@H](Cc1ccccc1)C(=O)NCCO` [DAMGO] was tested. Which Ki [2] did it give?
The Ki was 180 nM.

For `CSCC[C@H](NC(=O)[C@H](CC(C)C)NC(=O)[C@H](Cc1cnc[nH]1)NC(=O)[C@H](Cc1ccccc1)NC(=O)[C@@H](CCSC)NC(=O)[C@@H](N)Cc1ccc(O)cc1)C(=O)N[C@@H](CC(=O)O)C(N)=O` [DELTORPHIN A] (H-Y[dM]FHLMD-NH2), which Ki (Mu-type opioid receptor [1]) is on record?
Its Ki is 336 nM.

What about the Ki [2] of the same compound?
The Ki was 0.12 nM.

With `CC(C)[C@H](NC(=O)[C@H](CC(=O)O)NC(=O)[C@H](Cc1ccccc1)NC(=O)[C@@H](C)NC(=O)[C@@H](N)Cc1ccc(O)cc1)C(=O)N[C@H](C(=O)NCC(N)=O)C(C)C` [DELTORPHIN C] as the compound, how does the Ki (Mu-type opioid receptor [3]) read?
Its Ki is 387 nM.

What about the Ki [4] of the same compound?
Its Ki is 0.21 nM.

`CC(C)[C@H](NC(=O)[C@H](CCC(=O)O)NC(=O)[C@H](Cc1ccccc1)NC(=O)[C@H](C)NC(=O)[C@@H](N)Cc1ccc(O)cc1)C(=O)N[C@H](C(=O)NCC(=O)O)C(C)C` [DELTORPHINE II] was tested. Which Ki [4] did it give?
Its Ki is 0.31 nM.

How did the Ki [4] turn out when `CC(C)[C@H](NC(=O)[C@H](CCC(=O)O)NC(=O)[C@H](Cc1ccccc1)NC(=O)[C@@H](C)NC(=O)[C@@H](N)Cc1ccc(O)cc1)C(=O)N[C@H](C(=O)NCC(=O)O)C(C)C` [DELTORPHIN] was run?
The Ki was 7.97 nM.

For `C[C@@H](NC(=O)[C@@H](N)Cc1ccc(O)cc1)C(=O)N[C@@H](Cc1ccccc1)C(=O)NCC(=O)N[C@@H](Cc1ccc(O)cc1)C(=O)N1CCC[C@H]1C(=O)N[C@@H](CO)C(N)=O` [DERMORPHIN], which Ki (Mu-type opioid receptor [1]) is on record?
Its Ki is 0.7 nM.
